From patent US11247990B1, “Bicyclic fused pyridine compounds as inhibitors of TAM kinases” (ARRAY BIOPHARMA INC., priority 2017, dated 2022)

Legend:
Settings in all cases: averaged IC50
[1] = target: GST-tagged recombinant human TYRO3 kinase domain (Homo sapiens (Human), UniProt Q06418); experiment: TYRO3 Enzyme Assay (LanthaScreen Eu Kinase Binding, TR-FRET)
In short: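 LanthaScreen Eu binding (tracer displacement) format read by TR-FRET after 60 min at 22 °C. Emission ratio converted to percent of control; IC50 taken where a 4-parameter logistic fit crosses 50 POC.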

[2] = target: His-tagged recombinant human MER cytoplasmic domain (Homo sapiens (Human), UniProt Q12866); experiment: MER Enzyme Assay (LanthaScreen Eu Kinase Binding, TR-FRET)
In short: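 Percent of control, derived from ratiometric TR-FRET emission, was fitted to a 4-parameter logistic curve and IC50 taken at 50 POC. Binding was read after 60 min at 22 °C using Eu-based LanthaScreen technology and recombinant His-tagged MER cytoplasmic domain.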

[3] = target: His-tagged recombinant human AXL cytoplasmic domain (Homo sapiens (Human), UniProt P30530); experiment: AXL Enzyme Assay (LanthaScreen Eu Kinase Binding, TR-FRET)
In short: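 Compound displacement measured by TR-FRET after 60 min at 22 °C, using Eu-based LanthaScreen binding technology. Ratiometric emission converted to percent of control, fitted to a 4-parameter logistic curve, with IC50 at 50 POC.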

GST-tagged recombinant human TYRO3 kinase domain, sequence (Q06418 518-790): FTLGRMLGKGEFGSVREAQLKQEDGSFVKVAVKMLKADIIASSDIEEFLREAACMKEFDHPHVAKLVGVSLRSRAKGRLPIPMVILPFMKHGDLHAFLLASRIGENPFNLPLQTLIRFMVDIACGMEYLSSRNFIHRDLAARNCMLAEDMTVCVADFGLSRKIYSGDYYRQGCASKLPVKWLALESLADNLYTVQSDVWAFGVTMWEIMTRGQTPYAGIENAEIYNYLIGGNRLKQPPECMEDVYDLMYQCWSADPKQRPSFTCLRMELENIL
His-tagged recombinant human MER cytoplasmic domain, sequence (Q12866 527-999): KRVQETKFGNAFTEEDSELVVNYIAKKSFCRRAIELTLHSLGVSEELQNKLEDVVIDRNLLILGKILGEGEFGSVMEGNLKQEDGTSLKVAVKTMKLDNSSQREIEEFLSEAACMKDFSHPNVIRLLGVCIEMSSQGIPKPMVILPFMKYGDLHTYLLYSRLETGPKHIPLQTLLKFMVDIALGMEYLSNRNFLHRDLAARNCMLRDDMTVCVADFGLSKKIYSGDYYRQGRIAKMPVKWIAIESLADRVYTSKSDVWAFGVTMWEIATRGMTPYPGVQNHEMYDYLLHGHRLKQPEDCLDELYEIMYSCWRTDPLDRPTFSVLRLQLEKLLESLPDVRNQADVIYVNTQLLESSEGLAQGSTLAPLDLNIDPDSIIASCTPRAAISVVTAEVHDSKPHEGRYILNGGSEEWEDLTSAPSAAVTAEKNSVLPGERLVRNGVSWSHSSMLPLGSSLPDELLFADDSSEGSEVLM
His-tagged recombinant human AXL cytoplasmic domain, sequence (P30530 473-894): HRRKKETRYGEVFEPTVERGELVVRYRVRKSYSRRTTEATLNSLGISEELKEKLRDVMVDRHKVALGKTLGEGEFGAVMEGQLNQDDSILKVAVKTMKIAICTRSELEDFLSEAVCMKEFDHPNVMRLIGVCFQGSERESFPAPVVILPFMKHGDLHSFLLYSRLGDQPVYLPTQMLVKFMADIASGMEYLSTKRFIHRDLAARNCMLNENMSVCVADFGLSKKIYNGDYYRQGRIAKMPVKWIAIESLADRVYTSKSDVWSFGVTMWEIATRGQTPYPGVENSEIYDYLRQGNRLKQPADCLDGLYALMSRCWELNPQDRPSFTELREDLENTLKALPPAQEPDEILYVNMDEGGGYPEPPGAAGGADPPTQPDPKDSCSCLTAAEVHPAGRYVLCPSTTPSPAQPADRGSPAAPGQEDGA

| SMILES | IC50 [1] | IC50 [2] | IC50 [3] |
| --- | --- | --- | --- |
| CNc1cc2c(cn1)c(-c1cnn(C(CO)CO)c1)nn2[C@H]1CC[C@@H](Oc2ccccc2F)CC1 [Example 408, 2-(4-(1-((1s,4s)-4-(2-fluorophenoxy)cyclohexyl)-6-(methylamino)-1H-pyrazolo[4,3-c]pyridin-3-yl)-1H-pyrazol-1-yl)propane-1,3-diol] | 10 to 100 nM | < 10 nM | < 10 nM |
| CNc1cc2c(cn1)c(-c1cnn(C(CO)CO)c1)nn2[C@H]1CC[C@@H](Oc2cccc(F)c2)CC1 [Example 409, 2-(4-(1-((1s,4s)-4-(3-fluorophenoxy)cyclohexyl)-6-(methylamino)-1H-pyrazolo[4,3-c]pyridin-3-yl)-1H-pyrazol-1-yl)propane-1,3-diol] | 10 to 100 nM | < 10 nM | < 10 nM |
| CNc1cc2c(cn1)c(-c1cnn(C(CO)CO)c1)nn2[C@H]1CC[C@@H](Oc2ccc(F)cc2)CC1 [Example 410, 2-(4-(1-((1s,4s)-4-(4-fluorophenoxy)cyclohexyl)-6-(methylamino)-1H-pyrazolo[4,3-c]pyridin-3-yl)-1H-pyrazol-1-yl)propane-1,3-diol] | 10 to 100 nM | < 10 nM | < 10 nM |
| CCNc1cc2c(cn1)c(-c1cnn(C(CO)CO)c1)nn2[C@H]1CC[C@@H](Oc2ccc(F)cc2F)CC1 [Example 414, 2-(4-(1-((1s,4s)-4-(2,4-difluorophenoxy)cyclohexyl)-6-(ethylamino)-1H-pyrazolo[4,3-c]pyridin-3-yl)-1H-pyrazol-1-yl)propane-1,3-diol] | 10 to 100 nM | < 10 nM | < 10 nM |
| CCNc1cc2c(cn1)c(-c1cnn(C(CO)CO)c1)nn2[C@H]1CC[C@@H](Oc2cccc(F)c2F)CC1 [Example 415, 2-(4-(1-((1s,4s)-4-(2,3-difluorophenoxy)cyclohexyl)-6-(ethylamino)-1H-pyrazolo[4,3-c]pyridin-3-yl)-1H-pyrazol-1-yl)propane-1,3-diol] | < 10 nM | < 10 nM | < 10 nM |
| CNc1cc2c(cn1)c(-c1cnn(C[C@@H](O)CO)c1)nn2[C@H]1CC[C@@H](Oc2ccccc2C(F)(F)F)CC1 [Example 419, (R)-3-(4-(6-(methylamino)-1-((1s,4S)-4-(2-(trifluoromethyl)phenoxy)-cyclohexyl)-1H-pyrazolo[4,3-c]pyridin-3-yl)-1H-pyrazol-1-yl)propane-1,2-diol] | 10 to 100 nM | < 10 nM | < 10 nM |
| CCNc1cc2c(cn1)c(-c1cnn(C[C@@H](O)CO)c1)nn2[C@H]1CC[C@@H](Oc2cccc(Cl)c2)CC1 [Example 422] | 10 to 100 nM | < 10 nM | < 10 nM |
| CCNc1cc2c(cn1)c(-c1cnn(C[C@@H](O)CO)c1)nn2[C@H]1CC[C@@H](Oc2ccc(F)cc2F)CC1 [Example 423, (R)-3-(4-(1-((1s,4S)-4-(2,4-difluorophenoxy)cyclohexyl)-6-(ethylamino)-1H-pyrazolo[4,3-c]pyridin-3-yl)-1H-pyrazol-1-yl)propane-1,2-diol] | 10 to 100 nM | < 10 nM | < 10 nM |
| CCNc1cc2c(cn1)c(-c1cnn(C[C@@H](O)CO)c1)nn2[C@H]1CC[C@@H](Oc2cccc(F)c2F)CC1 [Example 429, (R)-3-(4-(1-((1s,4S)-4-(2,3-difluorophenoxy)cyclohexyl)-6-(ethylamino)-1H-pyrazolo[4,3-c]pyridin-3-yl)-1H-pyrazol-1-yl)propane-1,2-diol] | < 10 nM | < 10 nM | < 10 nM |
| CCNc1cc2c(cn1)c(-c1cnn(CC(C)(O)CO)c1)nn2[C@H]1CC[C@@H](Oc2ccccc2F)CC1 (stereo partly drawn) [Example 431, 3-(4-(6-(ethylamino)-1-((1s,4s)-4-(2-fluorophenoxy)cyclohexyl)-1H-pyrazolo[4,3-c]pyridin 3-yl)-1H-pyrazol-1-yl)-2-methylpropane-1,2-diol] | 10 to 100 nM | < 10 nM | < 10 nM |

Other lines, results leading:

| IC50 [1] | IC50 [2] | IC50 [3] | SMILES |
| --- | --- | --- | --- |
| < 10 nM | < 10 nM | < 10 nM | CNc1cc2c(cn1)c(-c1cnn(C[C@@H](N)CO)c1)nn2[C@H]1CC[C@@H](Oc2ccccc2F)CC1 [Example 432, (R)-2-amino-3-(4-(1-((1s,4S)-4-(2-fluorophenoxy)cyclohexyl)-6-(methylamino)-1H-pyrazolo[4,3-c]pyridin-3-yl)-1H-pyrazol-1-yl)propan-1-ol] |
| < 10 nM | < 10 nM | < 10 nM | CNc1cc2c(cn1)c(-c1cnn(C[C@H](N)CO)c1)nn2[C@H]1CC[C@@H](Oc2ccccc2F)CC1 [Example 433, (S)-2-amino-3-(4-(1-((1s,4S)-4-(2-fluorophenoxy)cyclohexyl)-6-(methylamino)-1H-pyrazolo[4,3-c]pyridin-3-yl)-1H-pyrazol-1-yl)propan-1-ol] |
| < 10 nM | < 10 nM | < 10 nM | CCNc1cc2c(cn1)c(-c1cnn(C[C@@H](O)CO)c1)nn2[C@H]1CC[C@@H](Oc2cccc(Cl)c2F)CC1 [Example 434, (R)-3-(4-(1-((1s,4S)-4-(3-chloro-2-fluorophenoxy)cyclohexyl)-6-(ethylamino)-1H-pyrazolo[4,3-c]pyridin-3-yl)-1H-pyrazol-1-yl)propane-1,2-diol] |
| 10 to 100 nM | < 10 nM | < 10 nM | CCNc1cc2c(cn1)c(-c1cnn(C[C@@H](O)CO)c1)nn2[C@H]1CC[C@@H](Oc2ccc(F)cc2Cl)CC1 [Example 436, (R)-3-(4-(1-((1s,4S)-4-(2-chloro-4-fluorophenoxy)cyclohexyl)-6-(ethylamino)-1H-pyrazolo[4,3-c]pyridin-3-yl)-1H-pyrazol-1-yl)propane-1,2-diol] |
| 10 to 100 nM | < 10 nM | < 10 nM | CCNc1cc2c(cn1)c(-c1cnn(C[C@@H](O)CO)c1)nn2[C@H]1CC[C@@H](Oc2cccc(F)c2Cl)CC1 [Example 437, (R)-3-(4-(1-((1s,4S)-4-(2-chloro-3-fluorophenoxy)cyclohexyl)-6-(ethylamino)-1H-pyrazolo[4,3-c]pyridin-3-yl)-1H-pyrazol-1-yl)propane-1,2-diol] |
| 10 to 100 nM | < 10 nM | < 10 nM | CCNc1cc2c(cn1)c(-c1cnn(C[C@@H](O)CO)c1)nn2[C@H]1CC[C@@H](Oc2cccc(Cl)c2Cl)CC1 [Example 439] |
| 10 to 100 nM | < 10 nM | < 10 nM | CCNc1cc2c(cn1)c(-c1cnn(C[C@H](O)C(C)(C)O)c1)nn2[C@H]1CC[C@@H](Oc2ccccc2F)CC1 [Example 440, (S)-1-(4-(6-(ethylamino)-1-((1s,4R)-4-(2-fluorophenoxy)cyclohexyl)-1H-pyrazolo[4,3-c]pyridin-3-yl)-1H-pyrazol-1-yl)-3-methylbutane-2,3-dioI] |
| 10 to 100 nM | < 10 nM | < 10 nM | CCNc1cc2c(cn1)c(-c1cnn(C[C@@H](O)C(C)(C)O)c1)nn2[C@H]1CC[C@@H](Oc2ccccc2F)CC1 [Example 442, (R)-1-(4-(6-(ethylamino)-1-((1s,4S)-4-(2-fluorophenoxy)cyclohexyl)-1H-pyrazolo[4,3-c]pyridin-3-yl)-1H-pyrazol-1-yl)-3-methylbutane-2,3-diol] |
| 10 to 100 nM | < 10 nM | < 10 nM | CCNc1cc2c(cn1)c(-c1cnn(C[C@H](O)CO)c1)nn2[C@H]1CC[C@@H](Oc2ccc(F)cc2F)CC1 [Example 444, (S)-3-(4-(1-((1s,4R)-4-(2,4-difluorophenoxy)cyclohexyl)-6-(ethylamino)-1H-pyrazolo[4,3-c]pyridin-3-yl)-1H-pyrazol-1-yl)propane-1,2-diol] |
| < 10 nM | < 10 nM | < 10 nM | CCNc1cc2c(cn1)c(-c1cnn(C[C@H](O)C(C)(C)O)c1)nn2[C@H]1CC[C@@H](Oc2cccc(F)c2F)CC1 [Example 445, (S)-1-(4-(1-((1s,4R)-4-(2,3-difluorophenoxy)cyclohexyl)-6-(ethylamino)-1H-pyrazolo[4,3-c]pyridin-3-yl)-1H-pyrazol-1-yl)-3-methylbutane-2,3-diol] |
| < 10 nM | < 10 nM | < 10 nM | CCNc1cc2c(cn1)c(-c1cnn(C[C@@H](O)C(C)(C)O)c1)nn2[C@H]1CC[C@@H](Oc2cccc(F)c2F)CC1 [Example 446, (R)-1-(4-(1-((1s,4S)-4-(2,3-difluorophenoxy)cyclohexyl)-6-(ethylamino)-1H-pyrazolo[4,3-c]pyridin-3-yl)-1H-pyrazol-1-yl)-3-methylbutane-2,3-diol] |
| 10 to 100 nM | < 10 nM | < 10 nM | CCNc1cc2c(cn1)c(-c1cnn(C[C@@H](O)C(C)(C)O)c1)nn2[C@H]1CC[C@@H](Oc2ccc(F)cc2F)CC1 [Example 447, (R)-1-(4-(1-((1s,4S)-4-(2,4-difluorophenoxy)cyclohexyl)-6-(ethylamino)-1H-pyrazolo[4,3-c]pyridin-3-yl)-1H-pyrazol-1-yl)-3-methylbutane-2,3-diol] |
| 10 to 100 nM | < 10 nM | < 10 nM | CCNc1cc2c(cn1)c(-c1cnn(C[C@H](O)C(C)(C)O)c1)nn2[C@H]1CC[C@@H](Oc2ccc(F)cc2F)CC1 [Example 448, (S)-1-(4-(1-((1s,4S)-4-(2,4-difIuorophenoxy)cyclohexyl)-6-(ethylamino)-1H pyrazolo[4,3-c]pyridin-3-yl)-1H-pyrazol-1-yl)-3-methylbutane-2,3-diol] |
| 10 to 100 nM | < 10 nM | < 10 nM | CNc1cc2c(cn1)c(-c1cnn(C)c1)nn2[C@@H]1CC[C@H](Oc2ccccc2)[C@@H](O)C1 [Example 471A, (1S,2S,5R)-5-(3-(1-methyl-1H-pyrazol-4-yl)-6-(methylamino)-1H-pyrazolo[4,3-c]pyridin-1-yl)-2-phenoxycyclohexan-1-ol] |
